Test results as given in publication PMC4232510, “Identification of Functionally Important Residues of the Rat P2X4 Receptor by Alanine Scanning Mutagenesis of the Dorsal Fin and Left Flipper Domains” (PLoS ONE, 2014).

How the values were obtained:
P2X1R N290A = tested on: P2X1R N290A; design: method as in PMID 16371009; conditions: cited from earlier work
P2X4R D280A = tested on: P2X4R D280A; design: method as in PMID 17663752, PMID 15632318; conditions: cited from earlier work
P2X3R S275A = tested on: P2X3R S275A; design: method as in PMID 21879712; key: n.f.: non-functional mutants; ↑: mutant with significant increased EC50 in comparison to WT (values represent fold increase); ≈: close to WT receptor; D: affected time-constant of the desensitizing current response; conditions: cited from earlier work
P2X4R H286A = tested on: P2X4R H286A; design: method as in PMID 17663752, PMID 15632318, PMID 12819199, PMID 15246547; conditions: cited from earlier work
P2X2R D277A = tested on: P2X2R D277A; design: method as in PMID 18194442; key: n.f.: non-functional mutants; ↑: mutant with significant increased EC50 in comparison to WT (values represent fold increase); ≈: close to WT receptor; D: affected time-constant of the desensitizing current response; conditions: cited from earlier work
rP2X4R R203A mutant = biological target: T1, rP2X4R R203A mutant (Rattus norvegicus, UniProt P51577, R203A); assay: whole-cell patch clamp, HEK293T cells expressing mutant; assay type: cell-based
T1 construct: expressed in transfected cells; host or cells: HEK293T
T1 sequence (P51577 whole entry R203A): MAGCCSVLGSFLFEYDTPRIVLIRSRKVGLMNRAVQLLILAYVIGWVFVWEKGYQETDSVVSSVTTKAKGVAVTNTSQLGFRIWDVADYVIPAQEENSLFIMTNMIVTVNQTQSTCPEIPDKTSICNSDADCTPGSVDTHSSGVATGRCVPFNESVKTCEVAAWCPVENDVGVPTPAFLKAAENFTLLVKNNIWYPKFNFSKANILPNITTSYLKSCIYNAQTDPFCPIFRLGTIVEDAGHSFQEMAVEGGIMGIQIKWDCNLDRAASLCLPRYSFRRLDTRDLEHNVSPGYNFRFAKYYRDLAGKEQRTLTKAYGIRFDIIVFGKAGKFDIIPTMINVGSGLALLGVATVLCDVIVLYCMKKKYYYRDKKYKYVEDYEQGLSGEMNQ

P2X4R V288A = tested on: P2X4R V288A; design: method as in PMID 24943126; conditions: cited from earlier work
P2X1R G288A = tested on: P2X1R G288A; design: key: n.f.: non-functional mutants; ↑: mutant with significant increased EC50 in comparison to WT (values represent fold increase); ≈: close to WT receptor; D: affected time-constant of the desensitizing current response; conditions: cited from earlier work
P2X3R D266A = tested on: P2X3R D266A; design: method as in PMID 15475563; key: n.f.: non-functional mutants; ↑: mutant with significant increased EC50 in comparison to WT (values represent fold increase); ≈: close to WT receptor; D: affected time-constant of the desensitizing current response; conditions: cited from earlier work
P2X1R G288C = tested on: P2X1R G288C; design: method as in PMID 17428985; conditions: cited from earlier work
P2X2R N202A = tested on: P2X2R N202A; design: method as in PMID 10940304; key: n.f.: non-functional mutants; ↑: mutant with significant increased EC50 in comparison to WT (values represent fold increase); ≈: close to WT receptor; D: affected time-constant of the desensitizing current response; conditions: cited from earlier work

## Nc1ncnc2c1ncn2[C@@H]1O[C@H](COP(=O)(O)OP(=O)(O)OP(=O)(O)O)[C@@H](O)[C@H]1O [ATP]
P2X1R N290A
  fold increase of EC50 for ATP in comparison to WT: N290A: ↑>50x[45]
P2X4R D280A
  fold increase of EC50 for ATP in comparison to WT: D280A ↑>100x[10], [52]
P2X3R S275A
  change in desensitization: S275A: D[55]
P2X4R H286A
  fold increase of EC50 for ATP in comparison to WT: H286A: ↑2–4x[10], [52], [57], [60]
P2X2R D277A
  change in EC50 for ATP: D277A:: ≈[56]
rP2X4R R203A mutant; ATP after 3 µM IVM 4-6 min
  Imax+IVM: 2.9 ± 0.6 nA
rP2X4R R203A mutant; decay after removal of 1 or 3 µM ATP, 3 µM IVM
  τoff +IVM: 4.6 ± 0.3 s
P2X4R V288A
  fold increase of EC50 for ATP in comparison to WT: V288A: ↑2x[49]
P2X1R G288A
  change in EC50 for ATP: ≈
P2X3R D266A
  change in desensitization: D266A: D[53]
P2X1R G288C
  fold increase of EC50 for ATP in comparison to WT: 10 x
P2X2R N202A
  change in EC50 for ATP: N202A: n.f.[6]
